The supplement of paper PMC10307832

Legend:
Assay in all cases: relative viability (nuclei count vs DMSO), 5 days (fraction); higher = more cells survive
[1] = compound: C1=CC=C2C(=C1)C=CC(=C2SSC3=C(C=CC4=CC=CC=C43)O)O [IPA-3] + Nc1ncn([C@H]2C[C@H](O)[C@@H](CO)O2)c(=O)n1 [Decitabine] (partner 2 µM)
Method in brief: (§1)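 Relative viability divides the nuclei count in treated wells by that in vehicle wells. Lung cancer cell lines were seeded in 1536-well plates, dosed by pin tool the next day, and fixed and stained after 5 days in one step with final 0.05% Triton X-100, 1% formaldehyde and 1 ug/ml Hoechst. Dosing was a single drug or a fixed anchor-drug dose plus five library-drug doses (not always all listed) in √10 steps, and values are medians of duplicate plates imaged at 4×.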

[2] = compound: Cn1c(Nc2ccc(C(F)(F)F)cc2)nc2cc(Oc3ccnc(-c4ncc(C(F)(F)F)[nH]4)c3)ccc21 [RAF265] + CS(=O)(=O)CCNCc1ccc(-c2ccc3ncnc(Nc4ccc(OCc5cccc(F)c5)c(Cl)c4)c3c2)o1 [Lapatinib] (partner 2 µM)
Method in brief: as §1

[3] = compound: Cc1ccc(-n2nc(C(C)(C)C)cc2NC(=O)Nc2ccc(OCCN3CCOCC3)c3ccccc23)cc1 [Doramapimod] + Cc1nc(NC(=O)N2CCC[C@H]2C(N)=O)sc1-c1ccnc(C(C)(C)C(F)(F)F)c1 [Alpelisib] (partner 2 µM)
Method in brief: as §1

[4] = compound: C1=CC=C2C(=C1)C=CC(=C2SSC3=C(C=CC4=CC=CC=C43)O)O [IPA-3] + N=C(N)NC(=N)NCCc1ccccc1 [Phenformin] (partner 250 µM)
Method in brief: as §1

COR-L23
relative viability ([1]; first compound 0.2 µM): 0.553
relative viability ([1]; first compound 0.6325 µM): 0.469
relative viability ([1]; first compound 2 µM): 0.41
relative viability ([1]; first compound 6.325 µM): 0.419
relative viability ([1]; first compound 20 µM): 0.256
relative viability ([2]; first compound 0.01 µM): 1.02
relative viability ([2]; first compound 0.03162 µM): 0.982
relative viability ([2]; first compound 0.1 µM): 1.02
relative viability ([2]; first compound 0.3162 µM): 0.748
relative viability ([2]; first compound 1 µM): 0.62
relative viability ([3]; first compound 0.02 µM): 0.762
relative viability ([3]; first compound 0.06325 µM): 0.719
relative viability ([3]; first compound 0.2 µM): 0.755
relative viability ([3]; first compound 0.6325 µM): 0.734
relative viability ([3]; first compound 2 µM): 0.697
relative viability ([4]; first compound 0.2 µM): 0.532
relative viability ([4]; first compound 0.6325 µM): 0.426
relative viability ([4]; first compound 2 µM): 0.471
relative viability ([4]; first compound 6.325 µM): 0.431
relative viability ([4]; first compound 20 µM): 0.232

EMC-BAC-2
relative viability ([1]; first compound 0.2 µM): 1.02
relative viability ([1]; first compound 0.6325 µM): 0.967
relative viability ([1]; first compound 2 µM): 0.958
relative viability ([1]; first compound 6.325 µM): 0.819
relative viability ([1]; first compound 20 µM): 1.07
relative viability ([2]; first compound 0.01 µM): 0.908
relative viability ([2]; first compound 0.03162 µM): 0.856
relative viability ([2]; first compound 0.1 µM): 0.857
relative viability ([2]; first compound 0.3162 µM): 0.993
relative viability ([2]; first compound 1 µM): 0.449
relative viability ([3]; first compound 0.02 µM): 0.75
relative viability ([3]; first compound 0.06325 µM): 0.736
relative viability ([3]; first compound 0.2 µM): 0.727
relative viability ([3]; first compound 0.6325 µM): 0.761
relative viability ([3]; first compound 2 µM): 0.695
relative viability ([4]; first compound 0.2 µM): 0.642
relative viability ([4]; first compound 0.6325 µM): 0.467
relative viability ([4]; first compound 2 µM): 0.541
relative viability ([4]; first compound 6.325 µM): 0.576
relative viability ([4]; first compound 20 µM): 0.594

LK-2
relative viability ([1]; first compound 0.2 µM): 0.297
relative viability ([1]; first compound 0.6325 µM): 0.333
relative viability ([1]; first compound 2 µM): 0.32
relative viability ([1]; first compound 6.325 µM): 0.442
relative viability ([1]; first compound 20 µM): 0.346
relative viability ([2]; first compound 0.01 µM): 0.879
relative viability ([2]; first compound 0.03162 µM): 0.875
relative viability ([2]; first compound 0.1 µM): 1.06
relative viability ([2]; first compound 0.3162 µM): 1.03
relative viability ([2]; first compound 1 µM): 0.632
relative viability ([3]; first compound 0.02 µM): 1.03
relative viability ([3]; first compound 0.06325 µM): 0.906
relative viability ([3]; first compound 0.2 µM): 0.751
relative viability ([3]; first compound 0.6325 µM): 0.737
relative viability ([3]; first compound 2 µM): 0.76
relative viability ([4]; first compound 0.2 µM): 0.408
relative viability ([4]; first compound 0.6325 µM): 0.456
relative viability ([4]; first compound 2 µM): 0.421
relative viability ([4]; first compound 6.325 µM): 0.43
relative viability ([4]; first compound 20 µM): 0.438

SW 1573
relative viability ([1]; first compound 0.2 µM): 0.7
relative viability ([1]; first compound 0.6325 µM): 0.452
relative viability ([1]; first compound 2 µM): 0.485
relative viability ([1]; first compound 6.325 µM): 0.56
relative viability ([1]; first compound 20 µM): 0.121
relative viability ([2]; first compound 0.01 µM): 1.15
relative viability ([2]; first compound 0.03162 µM): 1.18
relative viability ([2]; first compound 0.1 µM): 1.18
relative viability ([2]; first compound 0.3162 µM): 1.04
relative viability ([2]; first compound 1 µM): 0.824
relative viability ([3]; first compound 0.02 µM): 0.766
relative viability ([3]; first compound 0.06325 µM): 0.712
relative viability ([3]; first compound 0.2 µM): 0.644
relative viability ([3]; first compound 0.6325 µM): 0.726
relative viability ([3]; first compound 2 µM): 0.549
relative viability ([4]; first compound 0.2 µM): 0.465
relative viability ([4]; first compound 0.6325 µM): 0.35
relative viability ([4]; first compound 2 µM): 0.401
relative viability ([4]; first compound 6.325 µM): 0.342
relative viability ([4]; first compound 20 µM): 0.17

NCI-H2405
relative viability ([1]; first compound 0.2 µM): 0.797
relative viability ([1]; first compound 0.6325 µM): 0.737
relative viability ([1]; first compound 2 µM): 0.723
relative viability ([1]; first compound 6.325 µM): 0.721
relative viability ([1]; first compound 20 µM): 0.746
relative viability ([2]; first compound 0.01 µM): 1.09
relative viability ([2]; first compound 0.03162 µM): 1.08
relative viability ([2]; first compound 0.1 µM): 0.924
relative viability ([2]; first compound 0.3162 µM): 0.999
relative viability ([2]; first compound 1 µM): 0.607
relative viability ([3]; first compound 0.02 µM): 0.82
relative viability ([3]; first compound 0.06325 µM): 0.718
relative viability ([3]; first compound 0.2 µM): 0.715
relative viability ([3]; first compound 0.6325 µM): 1.18
relative viability ([3]; first compound 2 µM): 0.678
relative viability ([4]; first compound 0.2 µM): 0.437
relative viability ([4]; first compound 0.6325 µM): 0.386
relative viability ([4]; first compound 2 µM): 0.418
relative viability ([4]; first compound 6.325 µM): 0.389
relative viability ([4]; first compound 20 µM): 0.489

NCI-H2087
relative viability ([1]; first compound 0.2 µM): 0.344
relative viability ([1]; first compound 0.6325 µM): 0.321
relative viability ([1]; first compound 2 µM): 0.267
relative viability ([1]; first compound 6.325 µM): 0.261
relative viability ([1]; first compound 20 µM): 0.255
relative viability ([2]; first compound 0.01 µM): 0.964
relative viability ([2]; first compound 0.03162 µM): 0.874
relative viability ([2]; first compound 0.1 µM): 0.837
relative viability ([2]; first compound 0.3162 µM): 0.833
relative viability ([2]; first compound 1 µM): 0.684
relative viability ([3]; first compound 0.02 µM): 1.2
relative viability ([3]; first compound 0.06325 µM): 1.25
relative viability ([3]; first compound 0.2 µM): 1.05
relative viability ([3]; first compound 0.6325 µM): 1.23
relative viability ([3]; first compound 2 µM): 0.838
relative viability ([4]; first compound 0.2 µM): 0.596
relative viability ([4]; first compound 0.6325 µM): 0.412
relative viability ([4]; first compound 2 µM): 0.555
relative viability ([4]; first compound 6.325 µM): 0.476
relative viability ([4]; first compound 20 µM): 0.466

NCI-H460
relative viability ([1]; first compound 0.2 µM): 0.65
relative viability ([1]; first compound 0.6325 µM): 0.41
relative viability ([1]; first compound 2 µM): 0.492
relative viability ([1]; first compound 6.325 µM): 0.465
relative viability ([1]; first compound 20 µM): 0.324
relative viability ([2]; first compound 0.01 µM): 1.01
relative viability ([2]; first compound 0.03162 µM): 0.934
relative viability ([2]; first compound 0.1 µM): 0.853
relative viability ([2]; first compound 1 µM): 0.646
relative viability ([3]; first compound 0.02 µM): 0.446
relative viability ([3]; first compound 0.06325 µM): 0.467
relative viability ([3]; first compound 0.2 µM): 0.372
relative viability ([3]; first compound 0.6325 µM): 0.441
relative viability ([3]; first compound 2 µM): 0.357
relative viability ([4]; first compound 0.2 µM): 0.835
relative viability ([4]; first compound 0.6325 µM): 0.501
relative viability ([4]; first compound 2 µM): 0.495
relative viability ([4]; first compound 6.325 µM): 0.448
relative viability ([4]; first compound 20 µM): 0.446

LOU-NH91
relative viability ([1]; first compound 0.2 µM): 0.821
relative viability ([1]; first compound 0.6325 µM): 0.856
relative viability ([1]; first compound 2 µM): 0.815
relative viability ([1]; first compound 6.325 µM): 0.82
relative viability ([1]; first compound 20 µM): 0.888
relative viability ([2]; first compound 0.01 µM): 0.763
relative viability ([2]; first compound 0.03162 µM): 0.719
relative viability ([2]; first compound 0.1 µM): 0.664
relative viability ([2]; first compound 0.3162 µM): 0.808
relative viability ([2]; first compound 1 µM): 0.572
relative viability ([3]; first compound 0.02 µM): 0.794
relative viability ([3]; first compound 0.06325 µM): 0.728
relative viability ([3]; first compound 0.2 µM): 0.728
relative viability ([3]; first compound 0.6325 µM): 0.893
relative viability ([3]; first compound 2 µM): 0.574
relative viability ([4]; first compound 0.2 µM): 0.793
relative viability ([4]; first compound 0.6325 µM): 0.666
relative viability ([4]; first compound 2 µM): 0.721
relative viability ([4]; first compound 6.325 µM): 0.677
relative viability ([4]; first compound 20 µM): 0.954

NCI-H1651
relative viability ([1]; first compound 0.2 µM): 0.699
relative viability ([1]; first compound 0.6325 µM): 0.596
relative viability ([1]; first compound 2 µM): 0.631
relative viability ([1]; first compound 6.325 µM): 0.644
relative viability ([1]; first compound 20 µM): 0.549
relative viability ([2]; first compound 0.01 µM): 0.931
relative viability ([2]; first compound 0.03162 µM): 0.797
relative viability ([2]; first compound 0.1 µM): 0.864
relative viability ([2]; first compound 0.3162 µM): 0.669
relative viability ([2]; first compound 1 µM): 0.644
relative viability ([3]; first compound 0.02 µM): 0.788
relative viability ([3]; first compound 0.06325 µM): 0.987
relative viability ([3]; first compound 0.2 µM): 0.876
relative viability ([3]; first compound 0.6325 µM): 0.962
relative viability ([3]; first compound 2 µM): 0.859
relative viability ([4]; first compound 0.2 µM): 0.341
relative viability ([4]; first compound 0.6325 µM): 0.317
relative viability ([4]; first compound 2 µM): 0.364
relative viability ([4]; first compound 6.325 µM): 0.339
relative viability ([4]; first compound 20 µM): 0.31
